Results reported in PMC7534374 (Journal of Enzyme Inhibition and Medicinal Chemistry, 2020).

Key:
[1] = biological target: T1, human glutathione reductase (hGR) (Homo sapiens, UniProt P00390); assay: GR activity assay; format: biochemical
T1 sequence (P00390 44-522): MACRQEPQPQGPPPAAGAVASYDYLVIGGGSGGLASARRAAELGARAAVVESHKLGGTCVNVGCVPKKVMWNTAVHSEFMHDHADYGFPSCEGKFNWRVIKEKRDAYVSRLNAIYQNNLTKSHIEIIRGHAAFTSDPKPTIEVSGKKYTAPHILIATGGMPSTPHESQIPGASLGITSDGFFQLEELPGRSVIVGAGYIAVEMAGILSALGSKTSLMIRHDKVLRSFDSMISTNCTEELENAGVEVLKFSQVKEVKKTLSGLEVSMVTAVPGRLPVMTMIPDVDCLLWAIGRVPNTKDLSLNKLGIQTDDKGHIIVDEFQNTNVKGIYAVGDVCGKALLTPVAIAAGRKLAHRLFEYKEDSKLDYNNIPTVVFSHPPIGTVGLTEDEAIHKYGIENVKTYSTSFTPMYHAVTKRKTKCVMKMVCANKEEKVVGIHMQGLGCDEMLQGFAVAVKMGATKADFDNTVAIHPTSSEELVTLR

[2] = biological target: T2, yeast glutathione reductase (yGR) (Saccharomyces cerevisiae, UniProt P41921); assay: LC-MS/MS of covalent adduct; format: biochemical; conditions: read-out: Ki
T2 sequence (P41921 1-483): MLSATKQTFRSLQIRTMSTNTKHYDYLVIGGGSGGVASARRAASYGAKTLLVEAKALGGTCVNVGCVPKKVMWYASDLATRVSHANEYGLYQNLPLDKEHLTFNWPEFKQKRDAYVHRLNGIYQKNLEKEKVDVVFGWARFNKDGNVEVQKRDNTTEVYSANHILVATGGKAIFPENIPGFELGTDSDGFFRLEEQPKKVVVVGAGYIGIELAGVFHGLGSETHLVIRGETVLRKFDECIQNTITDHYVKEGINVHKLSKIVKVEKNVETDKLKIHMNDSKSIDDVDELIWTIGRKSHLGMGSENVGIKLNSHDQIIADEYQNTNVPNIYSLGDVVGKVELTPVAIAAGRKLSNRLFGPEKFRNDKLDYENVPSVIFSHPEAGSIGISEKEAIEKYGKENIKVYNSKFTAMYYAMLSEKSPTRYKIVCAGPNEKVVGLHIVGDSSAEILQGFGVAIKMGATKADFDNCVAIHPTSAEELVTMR

| SMILES | GR activity assay (NADPH consumption at 340 nm) [1] | KI (inactivation) [2] [µM] |
| --- | --- | --- |
| S=C=NCc1ccccc1 [BITC, Benzyl isothiocyanate] | BITC exerted comparable inhibitory effect against both of yeast and human GRs | 260 |
| S=C=NCCc1ccccc1 [PEITC, Phenethyl isothiocyanate] | both of BITC and PEITC inhibited yeast or human GR in a concentration-dependent manner |  |
